In ChEMBL document CHEMBL4033668, “Inhibitors of cytochrome P450 (CYP) 1B1” (Eur J Med Chem, 2017):

How the values were obtained:
[1] = biological target: T1, Cytochrome P450 1B1 (Homo sapiens, UniProt Q16678); assay: Inhibition of CYP1B1 (unknown origin) expressed in Escherichia coli DH5alpha coexpressing human NADPH-P450 reductase using 7-Ethoxyresorufin as substrate up to 6 mins in presence of NADP+ by spectrofluorometric analysis
T1 sequence (Q16678 whole entry): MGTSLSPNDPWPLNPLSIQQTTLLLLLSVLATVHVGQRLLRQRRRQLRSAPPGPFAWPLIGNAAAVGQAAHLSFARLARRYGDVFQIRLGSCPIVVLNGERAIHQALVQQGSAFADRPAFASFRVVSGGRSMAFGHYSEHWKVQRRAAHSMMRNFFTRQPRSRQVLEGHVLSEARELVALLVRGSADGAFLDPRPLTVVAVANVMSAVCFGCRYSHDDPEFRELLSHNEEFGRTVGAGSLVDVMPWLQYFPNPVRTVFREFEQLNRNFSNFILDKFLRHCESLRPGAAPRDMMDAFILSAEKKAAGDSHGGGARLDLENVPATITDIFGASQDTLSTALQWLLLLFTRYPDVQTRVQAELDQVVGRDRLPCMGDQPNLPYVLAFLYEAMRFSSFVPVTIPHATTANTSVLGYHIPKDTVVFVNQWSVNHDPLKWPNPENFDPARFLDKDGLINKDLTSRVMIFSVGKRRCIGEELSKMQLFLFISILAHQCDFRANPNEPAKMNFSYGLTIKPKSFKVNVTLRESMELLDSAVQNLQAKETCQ

[2] = biological target: T2, Cytochrome P450 1A1 (Homo sapiens, UniProt P04798); assay: Inhibition of CYP1A1 (unknown origin) expressed in Escherichia coli DH5alpha coexpressing human NADPH-P450 reductase using 7-Ethoxyresorufin as substrate up to 6 mins in presence of NADP+ by spectrofluorometric analysis; assay type: ADME
T2 sequence (P04798 whole entry): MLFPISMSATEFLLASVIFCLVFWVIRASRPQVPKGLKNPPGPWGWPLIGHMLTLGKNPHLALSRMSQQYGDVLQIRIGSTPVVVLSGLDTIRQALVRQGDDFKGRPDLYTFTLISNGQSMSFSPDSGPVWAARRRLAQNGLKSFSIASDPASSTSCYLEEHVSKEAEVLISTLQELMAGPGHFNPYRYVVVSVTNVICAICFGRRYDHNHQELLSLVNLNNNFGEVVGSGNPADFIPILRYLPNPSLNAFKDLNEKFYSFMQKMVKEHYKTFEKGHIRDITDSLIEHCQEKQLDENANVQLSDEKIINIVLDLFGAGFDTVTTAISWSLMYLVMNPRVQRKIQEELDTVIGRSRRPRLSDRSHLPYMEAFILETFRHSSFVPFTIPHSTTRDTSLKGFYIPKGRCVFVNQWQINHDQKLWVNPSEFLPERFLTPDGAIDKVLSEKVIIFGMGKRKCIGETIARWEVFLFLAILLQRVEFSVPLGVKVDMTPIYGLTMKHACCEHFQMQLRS

[3] = biological target: T3, Cytochrome P450 1A2 (Homo sapiens, UniProt P05177); assay: Inhibition of CYP1A2 (unknown origin) expressed in Escherichia coli DH5alpha coexpressing human NADPH-P450 reductase using 7-Ethoxyresorufin as substrate up to 6 mins in presence of NADP+ by spectrofluorometric analysis; assay type: ADME
T3 sequence (P05177 whole entry): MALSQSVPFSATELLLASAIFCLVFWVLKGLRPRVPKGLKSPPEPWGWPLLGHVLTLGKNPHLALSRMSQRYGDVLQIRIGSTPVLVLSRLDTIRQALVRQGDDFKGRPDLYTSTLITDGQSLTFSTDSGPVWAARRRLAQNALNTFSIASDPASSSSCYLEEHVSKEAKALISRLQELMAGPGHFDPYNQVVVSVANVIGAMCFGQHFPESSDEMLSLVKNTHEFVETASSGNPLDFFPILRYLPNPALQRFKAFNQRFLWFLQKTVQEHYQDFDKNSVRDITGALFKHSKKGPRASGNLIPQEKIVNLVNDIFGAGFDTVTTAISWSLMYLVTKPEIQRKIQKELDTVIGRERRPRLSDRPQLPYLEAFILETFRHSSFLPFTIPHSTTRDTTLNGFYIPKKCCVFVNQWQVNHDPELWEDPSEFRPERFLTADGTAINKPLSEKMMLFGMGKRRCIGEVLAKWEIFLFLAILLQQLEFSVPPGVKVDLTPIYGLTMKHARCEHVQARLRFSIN

[4] = biological target: T1, Cytochrome P450 1B1; assay: Competitive inhibition of CYP1B1 (unknown origin) expressed in yeast microsomes using (-)benzo[a]pyrene-7R-trans-7,8-dihyrodiol (B[a]P-7,8-diol) as substrate
[5] = biological target: T3, Cytochrome P450 1A2; assay: Inhibition of recombinant human CYP1A2 expressed in supersomes using 7-ethoxyresorufin O-deethylation as substrate after 5 mins in presence of NADP+ by spectrofluorimetric analysis; assay type: ADME
[6] = biological target: T1, Cytochrome P450 1B1; assay: Inhibition of CYP1B1 in […] recombinant human cytochrome P450 oxidoreductase using 7-ethoxyresorufin as substrate after 3 mins in presence of NADP+ by fluorescence assay
[7] = biological target: T1, Cytochrome P450 1B1; assay: Inhibition of human CYP1B1 expressed in Escherichia coli DH5alpha coexpressing human NADPH-P450 reductase using 4-estradiol as substrate in presence of NADP+ by HPLC analysis
[8] = biological target: T2, Cytochrome P450 1A1; assay: Inhibition of recombinant CYP1A1 (unknown origin) expressed in Escherichia coli DH5alphaF'Iq coexpressing human NADPH-P450 reductase using E2-d4 as substrate after 10 mins in presence of NADP+; assay type: ADME
[9] = biological target: T1, Cytochrome P450 1B1; assay: Inhibition of recombinant CYP1B1 (unknown origin) expressed in Escherichia coli DH5alphaF'Iq coexpressing human NADPH-P450 reductase using E2-d4 as substrate after 10 mins in presence of NADP+
[10] = biological target: T2, Cytochrome P450 1A1; assay: Inhibition of recombinant human CYP1A1 expressed in supersomes coexpressing NADPH-CYP reductase using 7-ethoxyresorufin as substrate after 15 mins in presence of NADP+ by Lineweaver-Burk plot analysis; assay type: ADME
[11] = biological target: T1, Cytochrome P450 1B1; assay: Inhibition of human CYP1B1 expressed in Escherichia coli DH5alpha coexpressing human NADPH P450 reductase using 7-ethoxyresorufin as substrate in presence of NADP+ by spectrofluorometeric analysis
[12] = biological target: T1, Cytochrome P450 1B1; assay: Inhibition of human CYP1B1 expressed in Escherichia coli DH5alpha coexpressing human NADPH P450 reductase using 7-ethoxyresorufin as substrate in presence of NADP+ by fluorimetric analysis
[13] = biological target: T1, Cytochrome P450 1B1; assay: Inhibition of recombinant CYP1B1 (unknown origin) expressed in supersomes coexpressing NADPH-CYP reductase using 7-ethoxyresorufin as substrate after 15 mins in presence of NADP+ by fluorescence spectrophotometric analysis
[14] = biological target: T1, Cytochrome P450 1B1; assay: Inhibition of recombinant human CYP1B1 expressed in supersomes coexpressing NADPH-CYP reductase using 7-ethoxyresorufin as substrate after 15 mins in presence of NADP+ by Lineweaver-Burk plot analysis
[15] = biological target: T1, Cytochrome P450 1B1; assay: Inhibition of recombinant CYP1B1 (unknown origin) expressed in supersomes coexpressing NADPH-CYP reductase using 7-ethoxyresorufin as substrate after 15 mins in presence of NADP+ by Lineweaver-Burk plot analysis
[16] = biological target: T2, Cytochrome P450 1A1; assay: Inhibition of recombinant human CYP1A1 expressed in supersomes using 7-ethoxyresorufin O-deethylation as substrate after 5 mins in presence of NADP+ by spectrofluorimetric analysis; assay type: ADME
[17] = species: Homo sapiens; assay: Selectivity index, ratio of IC50 for human CYP1A1 expressed in Escherichia coli DH5alpha coexpressing human NADPH P450 reductase to IC50 for human CYP1B1 expressed in Escherichia coli DH5alpha coexpressing human NADPH P450 reductase
[18] = biological target: T4, CYP1B1 (Homo sapiens, UniProt Q16678); assay: (§1) Inhibition of CYP1B1 (unknown origin) expressed in Escherichia coli DH5alpha coexpressing human NADPH P450 reductase using 7-ethoxyresorufin as substrate after 2 to 6 mins in presence of NADPH by double reciprocal plot analysis; settings: human, probe 7-ethoxyresorufin
T4 sequence (Q16678 whole entry): T1 sequence (Q16678 whole entry)

[19] = biological target: T1, Cytochrome P450 1B1; assay: as §1
[20] = biological target: T1, Cytochrome P450 1B1; assay: Inhibition of human CYP1B1 expressed in Escherichia coli DH5alpha coexpressing human NADPH P450 reductase using 7-ethoxyresorufin as substrate in presence of NADPH by fluorimetric analysis
[21] = biological target: T2, Cytochrome P450 1A1; assay: Inhibition of human CYP1A1 expressed in Escherichia coli DH5alpha coexpressing human NADPH P450 reductase using 7-ethoxyresorufin as substrate in presence of NADPH by fluorimetric analysis; assay type: ADME
[22] = biological target: T2, Cytochrome P450 1A1; assay: Competitive inhibition of […] CYP1A1 expressed in supersomes coexpressing NADPH-CYP reductase using 7-Ethoxyresorufin as substrate measured every 5 mins for 30 mins in presence of NADPH by fluorescence assay; assay type: ADME; settings: read-out: Ki(app)
[23] = biological target: T1, Cytochrome P450 1B1; assay: Inhibition of recombinant human CYP1B1 expressed in Escherichia coli coexpressing human NADPH-cytochrome P450 reductase using 7-ethoxyresorufin as substrate by fluorescence spectrophotometric analysis
[24] = biological target: T2, Cytochrome P450 1A1; assay: Inhibition of recombinant human CYP1A1 expressed in Escherichia coli coexpressing human NADPH-cytochrome P450 reductase using 7-ethoxyresorufin as substrate by fluorescence spectrophotometric analysis; assay type: ADME
[25] = species: Homo sapiens; assay: Selectivity index, ratio of IC50 for recombinant human CYP1A1 expressed in Escherichia coli coexpressing human NADPH-cytochrome P450 reductase to IC50 for recombinant human CYP1B1 expressed in Escherichia coli coexpressing human NADPH-cytochrome P450 reductase

N#C[Se]Cc1ccccc1C[Se]C#N
IC50 [1]: 130 to 270 nM
IC50 [2]: 100 to 450 nM
IC50 [3]: 200 to 1300 nM

CC(C)=CCOc1c2occc2cc2ccc(=O)oc12 [PENTOSALEN]
Ki [4]: 1000 nM

Cc1cc(O)c2c(c1)C(=O)c1cc(O)cc(O)c1C2=O [EMODIN]
IC50 [5]: 3730 nM

COc1ccc(-c2coc3cc(O)ccc3c2=O)cc1 [FORMONONETIN]
Ki [6]: 3700 nM

COc1c(O)ccc2cc3[n+](cc12)CCc1cc2c(cc1-3)OCO2 [THALIDENDINE]
IC50 [7]: 4100 nM

N#C[Se]Cc1cccc(C[Se]C#N)c1
IC50 [1]: 130 to 270 nM
IC50 [2]: 100 to 450 nM
IC50 [3]: 200 to 1300 nM

COc1cc2c(cc1O)CC[C@@H]1[C@@H]2CC[C@]2(C)[C@@H](O)CC[C@@H]12 [2-METHOXYESTRADIOL]
Ki [8]: 88000 nM
Ki [9]: 36000 nM

COc1cc(O)cc(/C=C/c2ccc(O)cc2)c1
Ki [10]: 130 nM

N#C[Se]Cc1ccccc1 [BENZYLSELENOCYANATE]
IC50 [1]: 130 to 270 nM
IC50 [2]: 100 to 450 nM
IC50 [3]: 200 to 1300 nM

COc1cc2c(cc1O)[C@H]1CC[C@]3(C)[C@@H](O)CC[C@H]3[C@@H]1CC2
Ki [8]: 69000 nM
Ki [9]: 28000 nM

O=c1c(O)c(-c2ccccc2)oc2ccccc12 [FLAVONOL]
IC50 [11]: 90 nM

c1ccc2c(c1)ccc1cc3c(ccc4ccccc43)cc12
IC50 [12]: 9 nM

N#C[Se]Cc1ccc(C[Se]C#N)cc1
IC50 [1]: 130 to 270 nM
IC50 [2]: 100 to 450 nM
IC50 [3]: 200 to 1300 nM

CC(C)=CCC/C(C)=C/COc1c2ccoc2cc2oc(=O)ccc12 [BERGAMOTTIN]
Ki [4]: 587000 nM

Oc1ccc(/C=C/c2cc(O)cc(O)c2)cc1 [RESVERATROL]
Ki [13]: 11200 nM
Ki [14]: 800 nM

COc1ccccc1/C=C/c1ccc(SC)cc1
Ki [13]: 300 nM
Ki [15]: 41 nM

COc1c2ccoc2c(OC)c2oc(=O)ccc12 [ISOPIMPINELLIN]
Ki [4]: 11000 nM

Cc1cc(Cl)c2c(c1N)C(=O)c1ccccc1C2=O
IC50 [16]: 400 nM
IC50 [5]: 530 nM

c1cc2ccc3cccc4ccc(c1)c2c34
Ratio IC50 [17]: 20.5

O=c1cc(-c2ccccc2)oc2cc(O)ccc12 [7-HYDROXYFLAVONE]
IC50 [11]: 250 nM

CC#Cc1ccc(-c2ccccc2)cc1
kinact [18]: 0.000667 s⁻¹
Ki [19]: 2300 nM

COc1cccc(/C=C/c2ccc(SC)cc2)c1
Ki [13]: 500 nM
Ki [15]: 30 nM

C#Cc1cc2ccc3cccc4ccc(c1)c2c34
IC50 [20]: 30 nM
IC50 [21]: 151 nM

CC(C)=CCOc1c2ccoc2cc2oc(=O)ccc12 [ISOIMPERATORIN]
Ki [4]: 6000 nM

CC[C@H]1OC(=O)[C@H](C)[C@@H](O[C@H]2C[C@@](C)(OC)[C@@H](O)[C@H](C)O2)[C@H](C)[C@@H](O[C@@H]2O[C@H](C)C[C@H](N(C)C)[C@H]2O)[C@](C)(O)C[C@@H](C)C(=O)[C@H](C)[C@@H](O)[C@]1(C)O [ERYTHROMYCIN]
IC50 [1]: 40000 nM

COc1c(O)ccc2c1CC[C@@H]1[C@@H]2CC[C@]2(C)[C@@H](O)CC[C@@H]12
Ki [9]: 149000 nM

C=C(C)[C@@H]1CCC(C)=C[C@H]1c1c(O)cc(CCCCC)cc1O [CANNABIDIOL]
Ki [22]: 150 nM

O=C1c2ccccc2C(=O)c2c1ccc(O)c2O [ATHRAQUINONES A]
Ki [23]: 500 nM

COc1ccc(-c2coc3cc(O)cc(O)c3c2=O)cc1 [BIOCHANIN]
Ki [6]: 1900 nM

CNCCC(Oc1ccc(C(F)(F)F)cc1)c1ccccc1 (stereo not drawn) [FLUOXETINE]
IC50 [1]: 475000 nM

COc1ccc2cc3[n+](cc2c1OC)CCc1cc(O)c(O)cc1-3
IC50 [7]: 9900 nM

O=C1c2ccccc2C(=O)c2c(O)c(O)cc(O)c21 [PURPURIN]
IC50 [23]: 2200 nM
Ki [23]: 700 nM
IC50 [24]: 5500 nM
Ratio IC50 [25]: 2.5

COc1ccc(-c2cc(=O)c3c(O)cc(O)cc3o2)cc1OC
IC50 [11]: 19 nM

O=c1cc(-c2ccccc2)oc2cccc(O)c12 [5-HYDROXYFLAVONE]
IC50 [11]: 210 nM
